Data from patent US20180243345A1, “METHOD FOR INCREASING MUSCLE GROWTH USING KRILL EXTRACT” (AVOCA, INC., priority 2015, published 2018).

Tested on: mTOR signaling
Test: mTOR signaling in C2C12 myoblasts (Western blot, ratio of P-p70-389 to total p70)
Format: cell-based
Conditions: for change in ratio of P-p70-389 to total p70 (mTOR signaling) compared to vehicle/control, in words / mTOR signaling compared with another stimulant, in words: 10 or 30 μM, 20 minutes; for mTOR signaling (ratio of P-p70-389 to total p70): 20 minutes stimulation, compared to vehicle
Method: C2C12 myoblasts were plated at approximately 30% confluence and grown for 24 hours in 10% FBS High Glucose DMEM with antibiotics (100m/ml streptomycin and 100 U/ml penicillin; Sigma). At 16 hours prior to the experiment, myoblasts cells were switched to serum free high glucose DMEM (no antibiotics) and were approximately 70% confluent at the time of the experiment. All stimulants were dissolved in chloroform to yield a concentration of 10 mg/mL, with the exception of DAG which was dissolved at 2 mg/mL and G3P which was dissolved at 6 mg/mL. […] Accordingly, cells were stimulated for 20 minutes with vehicle (Control; 100 μL of PBS) 10 or 30 μM of RIMFROST Sublime Krill Oil Extract (Rimfrost USA, Inc, Merry Hill, N.C.), soy-derived (S) phosphatidylserine (S-PS), phosphatidylinositol (S-PI), phosphatidylethanolamine (S-PE), phosphatidylcholine (S-PC), phosphatidic acid (S-PA), lysophosphatidic acid (S-LPA), diacylglycerol (DAG), glycerol-3-phosphate (G3P), or egg-derived PA (E-PA). Cells were then harvested in lysis buffer (40 mM Tris, pH 7.5; 1 mM EDTA; 5 mM EGTA; 0.5% Triton X-100; 25 mM (3-glycerophosphate; 25 mM NaF; 1 mM Na3VO4; 10 μg/mL leupeptin; and 1 mM PMSF) and subjected to immunoblotting as previously described. The ratio of P-p70-389 to total p70 was used as readout for mTOR signaling. As used in the Examples disclosed herein, 10 μM of RIMFROST Sublime Krill Oil Extract contains 0.01253 μM PS, which is 0.6% of the phospholipid content; and 30 μM of RIMFROST Sublime Krill Oil Extract contains 0.0376 μM PS, which is 0.6% of the phospholipid content.
The data was analyzed using a one way analysis of variance (ANOVA). A Tukey's Multiple Comparison Test was used to determine significant differences between treatments. Significance was set at P<0.05. Statistical analyses were performed on SigmaStat software (San Jose, Calif., USA).
In accordance with the materials and methods described above, krill extract, S-PC, S-PS, and S-PA were tested for their ability to activate mTOR signaling. […] The samples were then subjected to Western blot analysis for p70S6K phosphorylation on the threonine 389 residue (p′70-389) and total p70. The ratio of these signals was calculated and used as a marker of mTOR signaling.

Compound | change in ratio of P-p70-389 to total p70 (mTOR signaling) compared to vehicle/control, in words | mTOR signaling compared with another stimulant, in words | mTOR signaling (ratio of P-p70-389 to total p70) (taken as 10 μM) [%] | mTOR signaling (ratio of P-p70-389 to total p70) (taken as 30 μM) [%]
O=P(O)(O)OCC(O)CO (stereo not drawn) [G3P, glycerol-3-phosphate] | no increase |  |  | 
diacylglycerol [DAG] | no increase |  |  | 
lysophosphatidic acid [S-LPA] |  | to a greater degree than did E-PA | 638 | 694
phosphatidic acid [E-PA] |  |  | 206 | 221
phosphatidic acid [S-PA] |  | to a greater degree than did E-PA | 658 | 636
phosphatidylcholine [S-PC] | no increase |  |  | 
phosphatidylethanolamine [S-PE] | no increase |  |  | 
phosphatidylinositol [S-PI] | no increase |  |  | 
phosphatidylserine [S-PS] |  |  | 529 | 558
